In patent publication US5747545A, “Method of preventing NMDA receptor complex-mediated Neuronal damage” (priority 1995, dated 1998):
“Also recorded” adds a separate entry of the source.

Tests used:
[1] = system: cortical neurons (neuronal survival)
Procedure: S-nitrosocysteine was added as a source of NO.cndot. to cerebrocortical cultures (Lei et al., (1992) Neuron 8:1087-1099; Stamler et al., (1992) Science 258:1898-1902).
Peroxynitrite leads to lipid peroxidation and massive oxidation of sulfhydryls (Radi et al., (1991) J. Biol. Chem. 266:4244-4250; Radi et al., (1991) Arch. Biochem. Biophys. 288:481-487).
Values are expressed as mean+s.e.m. (n=9). Statistical comparisons were performed by an analysis of variance followed by a Scheffe multiple comparison of means (*, P<0.01 compared to control; **, P<0.05 compared to control; .dagger., P<0.01 compared to nitroso compound+SOD/catalase).
Specifically, the data in FIG. 7 were generated using mixed neuronal and glial cortical cultures from neonatal rats, as described previously (Lei, et al., (1992) Neuron 8:1087-1099). In at least three separate experiments, triplicate cultures were incubated overnight in Earle's buffered saline solution (EBSS) containing various concentrations of SNOC, peroxynitrite, SOD, catalase, or glutamate. […] The culture fluid was assayed for […] (LDH) as an indicator of neuronal survival by measuring the absorbance at 450 nm (Koh et al., (1987) J. Neurosci. Meth. 20:83-90). The cultures were also scored for neuronal viability by cell counting, generally with 0.2% trypan blue, after fixation in 2.5% glutaraldehyde, as described above. Neurons from cultures grown on 15 mm diameter cover slips were counted in a masked fashion in ~30 microscopic fields at 200 x.

[2] = physchem; type: physicochemical; conditions: pH 7.4
[3] = system: NMDA receptor (rat cortical neurons in culture); assay: Digital fura-2 imaging of NMDA-evoked intracellular [Ca2+] in cultured cortical neurons; type: cell-based, rat (Sprague-Dawley); conditions: after 2 mM DTT; 3 min exposure to 100 μM SNOC; NMDA 50 μM; FIG. 5A, P<0.01
[4] = system: retinal ganglion cells (NMDA receptor-mediated neurotoxicity); assay: Retinal ganglion cell survival assay (endogenous glutamate-related toxin, high calcium, low magnesium medium); type: cell-based, rat (Long-Evans); conditions: FIG. 3'
Procedure: To test amantadine derivatives for their ability to prevent neurotoxicity, neuronal cell death may be assayed as follows. […] Two to 6 days later, the animals are sacrificed by decapitation and enucleated, and the retinas quickly removed. The retinas are dissociated by mild treatment with the enzyme papain and cultured in Eagle's minimum essential medium (MEM, catalog #1090, Gibco, Grand Island, N.Y.) supplemented with 0.7% (w/v) methylcellulose, 0.3% (w/v) glucose, 2 mM glutamine, 1 μg/ml gentamicin, and 5% (v/v) rat serum, as described in Lipton et al., J. Physiol. 385:361, 1987. The cells are plated onto 75 mm^2 glass coverslips coated with poly-L-lysine in 35 mm tissue culture dishes. […]
To perform the viability test, the cell-culture medium is exchanged for physiological saline containing 0.0005% fluorescein diacetate for 15-45 s, and then cells are rinsed in saline. […] In contrast, the viable retinal ganglion cells display not only a blue color in the UV light but also a yellow-green fluorescence with filters appropriate for fluorescein. Thus, the use of two exchangeable fluorescence filter sets permits the rapid determination of viable ganglion cells in the cultures. […]

[5] = system: NMDA receptor (rat retinal ganglion cells); assay: Whole-cell patch clamp of NMDA-elicited current on rat retinal ganglion cells; type: cell-based, rat (Long-Evans)
From the text: (§1) FIGS. 4A'-4B' depict evidence for open-channel block of NMDA-elicited whole-cell current by memantine (MEM) on rat retinal ganglion cells. […] A rapid application system was used to administer the drugs, and a fast washout method was used in the experiments shown in FIGS. 4A' and 4B'.
(§2) For retinal ganglion cell labeling, dissociation, and culture, we used techniques that have been detailed elsewhere (Leifer et al. (1984) Science 224:303-306). […] Two to six days later, the animals were killed by decapitation. Following enucleation, the retinas were dissociated with mild treatment with the enzyme papain. The retinal cells were than plated onto glass coverslips coated with poly-L-lysine in 35 mm tissue culture dishes. The growth medium was Eagle's minimum essential medium supplemented with 0.7% (w/v) methylcellulose, 0.3% (w/v) glucose, 2 mM glutamine, 5% (v/v) rat serum, and 1 μg/ml gentamicin. Retinal ganglion cells were identified by the presence of the retrogradely transported dye granular blue.
Whole-cell and single-channel recordings of rat retinal ganglion cells were performed as described in detail elsewhere (Hamill et al., 1981; Lipton and Tauck, 1987). The neurons were continuously superfused in a chamber at 27°-29° C. with a bath solution composed of (in mM) NaCl, 137.6; KCl, 5.8; CaCl2, 2.5; HEPES, 5; glucose, 22.2; with phenol red, 0.001% (v/v); glycine, 1 μM; pH 7.2; and no added magnesium. The patch pipettes were filled with an intracellular solution containing (in mM) CsCl, 120; tetraethylammonium chloride, 20; HEPES, 10; EGTA, 2.25; CaCl2, 1; and MgCl2, 2; and sometimes with 3 mM Mg-ATP to minimize rundown in prolonged recordings (pH 7.2). […]. Solution changes could be achieved rapidly, within 50-100 msec, by moving the array of constantly flowing pipette tips relative to the cell with a micromanipulator driver. A control pipette containing bath solution and 1 μM TTX was used to wash out NMDA-inducedcurrent rapidly.

[6] = system: kainate (KA)-elicited current (rat retinal ganglion cells); assay: Whole-cell patch clamp of kainate-elicited current on rat retinal ganglion cells; type: cell-based, rat (Long-Evans); conditions: 12 μM memantine, 50 μM kainate
From the text: as §1, §2
(§3) Whole-cell and single-channel recordings of rat retinal ganglion cells were performed as described in detail elsewhere (Hamill et al., 1981; Lipton and Tauck, 1987). […]

[7] = system: quisqualate (QUIS)-elicited current (rat retinal ganglion cells); assay: Whole-cell patch clamp of quisqualate-elicited current on rat retinal ganglion cells; type: cell-based, rat (Long-Evans); conditions: 12 μM memantine, 5 μM quisqualate
From the text: as §1, §2, §3

[8] = system: NMDA antagonist (MK-801) binding to post-mortem human brain homogenates; conditions: Kornhuber et al. 1989; cited from earlier work
[9] = system: NMDA receptor channels; conditions: Bormann 1989; cited from earlier work

| Structure (SMILES) | Killing of cortical neurons [1] | Maximally-lethal concentration [1] | half-life [2] | Effect on NMDA-evoked [Ca2+]i response (SNOC experiment) [3] | minimal effective concentration ([4]; Rattus norvegicus, compared to control, read-out: Concentration at which increased neuronal survival reached statistical significance) | Effect on retinal ganglion cell death from endogenous glutamate-related toxin ([4]; memantine 1-25 μM, 16-20 h, 37° C.) | Kinetics for blocking/unblocking NMDA receptor-mediated response [5] | Effect of memantine when administered alone ([5]; 12 μM memantine alone, -60 mV, FIG. 4b' left) | Effect on NMDA-induced current ([5]; 12 μM memantine, 200 μM NMDA, -50 and +50 mV) | Inhibition of response to NMDA ([5]; 12 μM memantine, 200 μM NMDA, -60 mV, n=17) | Effect on kainate-elicited current [6] | Effect on quisqualate-elicited current [7] | Inhibition of binding of MK-801 [8] | Block of NMDA receptor channels [9] |
| --- | --- | --- | --- | --- | --- | --- | --- | --- | --- | --- | --- | --- | --- | --- |
| N[C@@H](CSN=O)C(=O)O [SNOC, S-nitrosocysteine] | dose-dependent killing of cortical neurons | 200 µM | ~30 s | recovered only slightly | – | – | – | – | – | – | – | – | – | – |
| CC12CC3CC(C)(C1)CC(N)(C3)C2 [memantine, 1-amino-3,5-dimethyl adamantine] | – | – | – | – | 6 µM | prevented retinal ganglion cell death from the endogenous glutamate-related toxin in a dose-dependent manner; also recorded: blocks neuronal cell death mediated by excessive stimulation of the NMDA receptor | relatively rapid | lack of effect | blocking effect | 90% | did not affect the current | did not affect the current | inhibits the binding of an NMDA antagonist (MK-801) | blocks NMDA receptor channels |
